# Assay results published in PMC5228037, “Discovery and Mechanistic Characterization of Selective Inhibitors of H2S-producing Enzyme: 3-Mercaptopyruvate Sulfurtransferase (3MST) Targeting Active-site Cysteine Persulfide” (Scientific Reports, 2017).
# Columns and labels:
# [1] = molecular target: T1, rhodanese (thiosulfate sulfurtransferase, Type II) (Bos taurus, UniProt P00586); test: Rhodanese activity, conversion of cyanide to thiocyanide (Sörbo method); assay type: biochemical, bovine; settings: 100 μM compound; room temperature 5 min; mean ± S.D.
# T1 construct: Bovine liver rhodanese; purchased Sigma-Aldrich; host or cells: bovine liver
# T1 sequence (P00586 1-297): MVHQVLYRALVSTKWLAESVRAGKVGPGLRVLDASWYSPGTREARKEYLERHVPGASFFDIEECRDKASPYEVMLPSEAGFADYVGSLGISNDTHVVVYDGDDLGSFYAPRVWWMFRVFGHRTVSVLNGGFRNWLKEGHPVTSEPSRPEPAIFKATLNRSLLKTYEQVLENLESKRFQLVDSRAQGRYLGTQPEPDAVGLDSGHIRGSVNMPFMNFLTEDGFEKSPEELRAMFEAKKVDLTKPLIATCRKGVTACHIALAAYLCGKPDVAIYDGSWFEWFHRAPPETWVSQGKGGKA
# Method: Figure 2 Selectivity assessment of hit compounds for 3MST over other H2S/polysulfides-producing enzymes and rhodanese. (a) 3MST-Inhibitory activity of hit compounds at 10 and 100 μM in cell lysate of 3MST-expressing HEK293 cells. 100 μM 3MP and 100 μM DTT were added to the solution containing 0.1% DMSO as a cosolvent, and the mixture was incubated at 37 °C for 15 min. H2S production was measured by gas chromatography. All data are presented as the mean ± S.D. (100 μM: n = 3 or 4; 10 μM: n = 3). (b) Selectivity assessment of hit compounds at 100 μM towards CBS and CSE. Only DMSO was added to the control sample instead of DMSO solution containing hit compounds. H2S production was monitored by gas chromatography. All data are presented as the mean (n = 3). (c) Detection method for rhodanese activity (Sörbo method). (d) Selectivity assessment of hit compounds towards rhodanese. The results are mean ± S.D. (n = 4, three times). These values were determined based upon the absorbance of [Fe(SCN)3] at 460 nm (Sӧrbo method). Bovine rhodanese 1.3–1.7 units/mL, substrate: 52 mM Na2S2O3, 50 mM KCN, 0.004% (w/v) BSA, 100 μM compound and DMSO 1% (v/v) in 88 mM potassium phosphate buffer (pH 8.6) at room temperature for 5 min incubation. (e) Fluorescence confocal microscopic images of live COS7 cells transfected with 3MST or an empty vector[9] as a control. Cells were incubated with 50 μM SSP4, a fluorescent probe for sulfane sulfur, and 10 μM, 1 μM, 0.5 μM, 0.1 or 0 μM compound 3 in DMEM containing 0.6% DMSO for 30 min, then washed with HBSS and placed in fresh DMEM with 0‒10 μM compound 3 (Pre). 500 μM 3MP was added to the cells and the cells were incubated for 10 min (10 min). (f) Graphic representation of (e). F/F0 was calculated by dividing the fluorescence intensity of cells after addition of 500 μM 3MP (10 min) by that of cells before addition of 500 μM 3MP (Pre), then the mean F/F0 was determined from 5 cells. All data represent the mean ± standard error of the mean (SEM) of three experiments.
# Following reagents were prepared.
# B. 125 mM sodium thiosulfate (Na2S2O3) solution
# C. 250 mM potassium cyanide (KCN) solution in reagent A
# D. 14% (w/v) nitric acid (HNO3) solution
# E. 410 mM ferric nitrate (Fe(NO3)3) in reagent D
# F. 37% formaldehyde solution
# G. 12.5 mM sodium thiosulfate (Na2S2O3) solution with 0.025% bovine serum albumin H. rhodanese solution in reagent G […]
# Mixed by pipetting and equilibrate d to room
# Reagent H (Enzyme Solution) 16 µL 16 µL - Mixed by pipetting and incubate d at 25℃ for exactly 5 minutes , and then added […]
# Mixed by pipetting and then added […]
# Mixed by pipetting , transferred the solution 44 µL 44 µL 44 µL […]
# Mixed by pipetting and recorded the A460 nm for the Test, Control and Blank using a microplate […]
# Supplementary Figure S10. […]
# [2] = Reactivity test toward 3MP and DTT (2nd screening, no enzyme); settings: 50 μM 3MP, 40 μM DTT, no 3MST, mean±S.D. n = 4
# Method: Reactivity of the hit compounds toward 3MP and DTT was examined. The final concentration of the compounds was 10 or 50 μM. The assay protocol was as follows: compounds were diluted with HSip-1 solution to 20 or 100 μM solution (10% DMSO) with a Multi-Drop Combi. Next, 3MP and DTT solution (10 μL, final concentrations: 50 μM 3MP and 40 μM DTT) was dispensed into the plates (total volume was 20 μL, 5% DMSO), and the plates were incubated at room temperature for 3 hr. The fluorescence of HSip-1 was measured (λex = 485 nm, λem = 520 nm) with a microplate reader (PHERAstar PLUS). Background control wells (i.e., no addition wells instead of addition of 3MP and DTT, n = 16) were also prepared for all plates.
# Supplementary Note 3. […]
# The second screening, which is a non-enzymatic assay, was performed to eliminate false-positive hit compounds such as naphthoquinone that react with the substrates, e.g., 3MP and DTT. Even in […]
# μM 3MP and 40 μM DTT. The fluorescence increase in the presence or the absence of 3MP and DTT was regarded as 100% or 0% fluorescence signal, respectively, and we evaluated the ability of each compound (10 μM and 50 μM) to inhibit the fluorescence increase caused by the reaction with 3MP and DTT. In this assay, we selected compounds showing ‒25% ≤ inhibitory activity at both 10 and 50 μM ≤ 50% (545 compounds). Then, we further selected compounds showing more than 60% inhibitory activity in the previous confirmation test among 545 compounds (146 hit compounds) (Supplementary Fig. S7). These compounds were considered not to react with 3MP and DTT, at least in this concentration range. […]
SMILES,Inhibition of rhodanese conversion of cyanide ions to thiocyanide ions [1] [%],No Enzyme: inhibition of HSip-1 fluorescence increase caused by 3MP and DTT ([2]; 10 μM compound) [%],No Enzyme: inhibition of HSip-1 fluorescence increase caused by 3MP and DTT ([2]; 50 μM compound) [%]
NC(=O)c1ccsc1NC(=O)CSc1nc2ccccc2c(=O)[nH]1 [compound 1],18.2 ± 3.6,10.1±6.2,17.2±4.0
Cc1sc2nc(SCC(=O)c3ccc(O)cc3O)[nH]c(=O)c2c1C [compound 2],10.9 ± 5.5,7.4±10.6,-23.6±17.1
Cc1cc(=O)[nH]c(SCC(=O)c2cccc3ccccc23)n1 [compound 3],1.7 ± 6.7,7.4±5.5,6.3±4.5
O=C(O)c1cccc(NS(=O)(=O)c2ccccc2)c1 [compound 5],9.7 ± 4.5,11.4±4.9,10.5±4.5
